Experimental data as given in patent US4127687A, “Prevention of fouling of marine structures such as boat hulls” (Rohm and Haas Company, priority 1976, dated 1978).
Converted amounts (≈) assume the structure as drawn. Read-outs that look alike come from different tables or passages of the source.

Legend:
[1] = Amount of toxicant remaining in the test container after membrane diffusion raft tests; type: physicochemical; design: key: 0: empty or trace; +: some; + +: ample; settings: after completion of membrane diffusion raft tests
Text: (§1) A known quantity of the test compound is placed into a cylindrical plastic container whose open end is then covered with a membrane of known porosity; the complete unit is attached to the appropriate raft panel so that the poison can freely diffuse into the free water layer around it. Regular inspections, recording time and quantity of settlement, allow a life history of each membrane trial to be constructed. Each raft panel contains 35 compounds to be evaluated together with 4 standard poisons and 1 non-toxic membrane for control.
(§2) After the completion of membrane tests the contents of all containers are checked visually for poison loss. An empty container indicates an unacceptably high solubility for long term effectiveness; where the poison loss is low the compound is tested in one of two ways depending on its performance against fouling.
^b Amount of toxicants remaining in the test container after the
completion of the membrane diffusion raft tests: 0 = empty or trace, + =

[2] = Water solubility by UV spectrophotometric method; type: physicochemical; settings: water
Procedure: The water solubilities of several isothiazolones were determined by UV spectrophotometric measurements of saturated aqueous solution of each compound in comparison with measurement of solutions of carefully prepared known concentration as outlined in the following example.
DETERMINATION OF SOLUBILITY OF 5-CHLORO-2-(4-FLUOROPHENYL)-4-METHYL-3-ISOTHIAZOLONE OF EXAMPLE 115
A sample of 5-chloro-2-(4-fluorophenyl)-4-methyl-3-isothiazolone (0.0406 g., 1.67 × 10^-4 mole) was dissolved in 50 ml. of methanol. A 5 ml. aliquot of the solution was diluted to 1000 ml. with deionized water, providing a solution of 1.67 × 10^-5 moles/liter concentration. An ultraviolet spectrum of this solution was run using a 10 cm. cell. The absorbance (As) at the wave length of maximum absorption (279 nm.) was 1.208. The molar absorptivity, AM, was calculated from the relationship
where b and c are path length or cell thickness and concentration respectively. Thus, AM was [formula]
Another sample of the compound (0.3-0.5 g.) was stirred vigorously in 40 ml. of deionized water for approximately 72 hrs. to give a saturated solution. The mixture was filtered through very fine filter paper (Whatman No. 50) to remove all suspended solid. Small portions of the filtrate were diluted with water by various factors until an approximately mid-scale absorbance was obtained upon running an ultraviolet spectrum. Such an absorbance was obtained at a dilution of 10. The absorbance was 0.975 in a 10 cm. cell. Using the value for AM obtained earlier, in the equation

weed = experiment: Membrane Diffusion Raft Trials, weed control; type: in vivo, grass-like algal growth common in sea water; settings: membrane test, average 15 to 16 weeks of immersion
Text: (§3) 1). FIELD TESTS: - Membrane Diffusion Raft Trials
(§4) A specially constructed raft provides three types
(§5) a). Waterline Well illuminated, aerated
(§6) b). Flats Poorly illuminated deeper
as §1
(§7) The behavior on the raft can thus be compared with that of the standard poisons and the non-toxic control. At normal loading a membrane over the standard poisons would be free from macro-fouling after six months immersion. Compounds showing selective effects against restricted groups of fouling organisms also show up by membrane testing.
as §2
(§8) In the membrane tests, the results of approximately 140 compounds evaluated appear in Table 1. The symbols "0" means no detactable effect, the symbol "+" indicates the compound is active against the given fouling organism, and the symbol "++" means that the compound appears to be effective over at least about a four month period for essentially preventing fouling activity by the given organism. In the Table, "weed" designates a grass-like algal growth common in sea water.
(§9) Membrane Test results are of an average 15 to 16 weeks of immersion,
(§10) ^a 0 = none, + = some, + + = effective.

Enteromorpha spores = experiment: Laboratory toxicity test (Lab Bioassay) with Enteromorpha spores; type: in vivo; settings: using Enteromorpha spores
Text: Standard laboratory toxicity tests use Enteromorpha spores (zoospores or gametes) but Ectocarpus spores and barnacle nauplii may also be used. During the spore tests additional information on the control of bacterial and diatom slimes becomes available since these organisms are unavoidably introduced with the spore inoculum.
More detailed laboratory toxicity tests on promising compounds determine LD50 values as percentage saturated solution.
^c Using Enteromorpha spores.

barnacle = experiment: Membrane Diffusion Raft Trials, barnacle control; type: in vivo, barnacles; settings: membrane test, average 15 to 16 weeks of immersion
Text: as §3, §4, §5, §6, §1, §7, §2, §8, §9, §10
^f The 1975 Spring settlement of barnacles was very meager and the […]

[3] = saturated solution, Table 1, read-out: Solubility by UV method

SMILES	Contents at the end of test (amount of toxicants remaining in the test container) [1]	solubility [2, 3]	Weed Control (weed)	Lab Bioassay LD50 (Enteromorpha spores)	Barnacle Control (barnacle)	solubility [2]
CCCCC(CC)Cn1sc(Cl)cc1=O (stereo not shown) [Example 17]	0	135 µg/mL (≈ 545 µM)	+ +	.013 percentage saturated solution	+ +	–
CCCCCCCCCCCCn1sc(Cl)cc1=O [Example 23]	+	0.7 to 1.5 µg/mL (≈ 2.3 to 4.94 µM)	+ +	0.02 percentage saturated solution	+	–
O=c1cc(Cl)sn1Cc1ccc(Cl)cc1 [Example 32]	+ +	70 µg/mL (≈ 269 µM)	+ +	0.018 percentage saturated solution	+	–
O=c1cc(Cl)sn1-c1ccc(Cl)cc1 [Example 34]	+ +	41 µg/mL (≈ 167 µM)	+ +	0.025 percentage saturated solution	+ +	–
COc1ccc(-n2sc(Cl)cc2=O)cc1 [Example 38]	+ +	300 µg/mL (≈ 1240 µM)	+ +	0.025 percentage saturated solution	+	–
O=c1cc(Cl)sn1-c1ccc(Oc2ccccc2)cc1 [Example 39]	+ +	–	0	0.6 percentage saturated solution	+ +	–
COc1cc(Cl)ccc1-n1sc(Cl)cc1=O [Example 41]	+ +	55 µg/mL (≈ 199 µM)	+ +	0.03 percentage saturated solution	+	–
COc1c(Cl)cccc1-n1sc(Cl)cc1=O [Example 42]	+ +	45 µg/mL (≈ 163 µM)	+ +	0.03 percentage saturated solution	+	–
CCCCCCn1scc(Br)c1=O [Example 47]	+	–	0	> 1 percentage saturated solution	+ +	–
CCCCCCCCCCn1scc(Br)c1=O [Example 49]	+	–	+ +	0.01 percentage saturated solution	0	–
O=c1c(Br)csn1C1CCCCC1 [Example 51]	+	143 µg/mL (≈ 545 µM)	+ +	0.01 percentage saturated solution	+	–
O=c1c(Br)csn1Cc1ccc(Cl)cc1 [Example 53]	+ +	18 µg/mL (≈ 59.1 µM)	+ +	0.1 percentage saturated solution	+	–
CCCCC(CC)Cn1sc(Cl)c(Cl)c1=O (stereo not shown) [Example 58]	+	30 µg/mL (≈ 106 µM)	+ +	0.0024 percentage saturated solution	+ +	–
CC(C)(C)CC(C)(C)n1sc(Cl)c(Cl)c1=O [Example 59]	+ +	38 µg/mL (≈ 135 µM)	+ +	0.006 percentage saturated solution	+	–
O=c1c(Cl)c(Cl)sn1C1CCCCC1 [Example 67]	+	–	+ +	0.3 percentage saturated solution	+ +	48 µg/mL (≈ 190 µM)
O=c1c(Cl)c(Cl)sn1CCc1ccccc1 [Example 69]	+ +	22 µg/mL (≈ 80.2 µM)	+ +	0.01 percentage saturated solution	0	–
O=c1c(Cl)c(Cl)sn1Cc1ccccc1 [Example 71]	+	52 µg/mL (≈ 200 µM)	+ +	0.25 percentage saturated solution	+ +	–
O=c1c(Cl)c(Cl)sn1Cc1ccc(Cl)cc1 [Example 72]	+ +	11 µg/mL (≈ 37.3 µM)	+ +	0.015 percentage saturated solution	+	–
O=c1c(Cl)c(Cl)sn1-c1ccccc1 [Example 74]	+ +	8 µg/mL (≈ 32.5 µM)	+ +	0.03 percentage saturated solution	+ +	–
O=c1c(Cl)c(Cl)sn1-c1ccc(Cl)cc1 [Example 75]	+ +	3 µg/mL (≈ 10.7 µM)	+ +	0.006 percentage saturated solution	0	–
Cc1c(Cl)cccc1-n1sc(Cl)c(Cl)c1=O [Example 78]	+	3.7 µg/mL (≈ 12.6 µM)	+ +	0.08 percentage saturated solution	0	–
Cc1c(Cl)sn(-c2ccc(I)cc2)c1=O [Example 117]	+ +	–	+	0.2 percentage saturated solution	+ +	–
Cc1ccccc1-n1sc(Cl)c(C)c1=O [Example 118]	+	–	+ +	0.15 percentage saturated solution	0	–
Cc1cccc(-n2sc(Cl)c(C)c2=O)c1 [Example 119]	+ +	–	+ +	0.1 percentage saturated solution	0	–
Cc1ccc(-n2sc(Cl)c(C)c2=O)cc1C [Example 122]	+ +	–	+ +	0.01 percentage saturated solution	+ +	–
Cc1c(Cl)sn(-c2ccc(O)cc2)c1=O [Example 125]	+ +	–	+ +	> 1 percentage saturated solution	0	–
CCOC(=O)c1ccc(-n2sc(Cl)c(C)c2=O)cc1 [Example 126]	+ +	–	+	0.13 percentage saturated solution	+ +	–
Cc1c(Cl)sn(-c2ccccc2C(F)(F)F)c1=O [Example 128]	+	–	+ +	0.6 percentage saturated solution	0	–
